pIC50: −log10 of the molar value. Where two headings read alike, the source gives them in different places. One block for each compound: values may come before it.
How the values were obtained:
[1] = molecular target: T1, hERG channel (Homo sapiens, UniProt Q12809); experiment: hERG channel inhibition assay (patch-clamp, CHOhERG cells); assay type: cell-based; conditions: for safety window (hERG IC20/TLR7/8/9 IC50) compared to the compounds of this invention: result in words; for hERG IC20/TLR7 IC50 / hERG IC20/TLR9 IC50 / hERG IC20/TLR8 IC50: safety ratio
T1 construct: expressed in transfected cells; host or cells: CHO (Chinese hamster ovary)
Protocol: hERG Channel Inhibition Assay:
The hERG K^+ channels were cloned in humans and stably expressed in a CHO (Chinese hamster ovary) cell line. CHOhERG cells were used for patch-clamp (voltage-clamp, whole-cell) experiments. Cells were stimulated by a voltage pattern to activate hERG channels and conduct IKhERG currents (rapid delayed outward rectifier potassium current of the hERG channel). After the cells were stabilized for a few minutes, the amplitude and kinetics of IKhERG were recorded at a stimulation frequency of 0.1 Hz, (6 bpm). Thereafter, the test compound was added to the preparation at increasing concentrations. For each concentration, an attempt was made to reach a steady-state effect, usually, this was achieved within 3-10 min at which time the next highest concentration was applied. The amplitude and kinetics of IKhERG are recorded in each concentration of the drug which were compared to the control values (taken as 100%). (references: Redfern W S, Carlsson L, Davis A S, Lynch W G, MacKenzie I, Palethorpe S, Siegl P K, Strang I, Sullivan A T, Wallis R, Camm A J, Hammond T G. 2003; Relationships between preclinical cardiac electrophysiology, clinical QT interval prolongation and torsade de pointes for a broad range of drugs: evidence for a provisional safety margin in drug development. Cardiovasc. Res. 58:32-45, Sanguinetti M C, Tristani-Firouzi M. 2006; hERG potassium channels and cardiac arrhythmia. Nature 440:463-469, Webster R, Leishman D, Walker D. 2002; Towards a drug concentration effect relationship for QT prolongation and torsades de pointes. Curr. Opin. Drug Discov. Devel. 5:116-26).

[2] = molecular target: T2, hTLR9 (Homo sapiens, UniProt Q9NR96); parameters: host or cells: HEK; conditions: data disclosed in US20150105370; read-out: HEK/hTLR9 IC50; cited from earlier work
T2 sequence (Q9NR96 26-1032): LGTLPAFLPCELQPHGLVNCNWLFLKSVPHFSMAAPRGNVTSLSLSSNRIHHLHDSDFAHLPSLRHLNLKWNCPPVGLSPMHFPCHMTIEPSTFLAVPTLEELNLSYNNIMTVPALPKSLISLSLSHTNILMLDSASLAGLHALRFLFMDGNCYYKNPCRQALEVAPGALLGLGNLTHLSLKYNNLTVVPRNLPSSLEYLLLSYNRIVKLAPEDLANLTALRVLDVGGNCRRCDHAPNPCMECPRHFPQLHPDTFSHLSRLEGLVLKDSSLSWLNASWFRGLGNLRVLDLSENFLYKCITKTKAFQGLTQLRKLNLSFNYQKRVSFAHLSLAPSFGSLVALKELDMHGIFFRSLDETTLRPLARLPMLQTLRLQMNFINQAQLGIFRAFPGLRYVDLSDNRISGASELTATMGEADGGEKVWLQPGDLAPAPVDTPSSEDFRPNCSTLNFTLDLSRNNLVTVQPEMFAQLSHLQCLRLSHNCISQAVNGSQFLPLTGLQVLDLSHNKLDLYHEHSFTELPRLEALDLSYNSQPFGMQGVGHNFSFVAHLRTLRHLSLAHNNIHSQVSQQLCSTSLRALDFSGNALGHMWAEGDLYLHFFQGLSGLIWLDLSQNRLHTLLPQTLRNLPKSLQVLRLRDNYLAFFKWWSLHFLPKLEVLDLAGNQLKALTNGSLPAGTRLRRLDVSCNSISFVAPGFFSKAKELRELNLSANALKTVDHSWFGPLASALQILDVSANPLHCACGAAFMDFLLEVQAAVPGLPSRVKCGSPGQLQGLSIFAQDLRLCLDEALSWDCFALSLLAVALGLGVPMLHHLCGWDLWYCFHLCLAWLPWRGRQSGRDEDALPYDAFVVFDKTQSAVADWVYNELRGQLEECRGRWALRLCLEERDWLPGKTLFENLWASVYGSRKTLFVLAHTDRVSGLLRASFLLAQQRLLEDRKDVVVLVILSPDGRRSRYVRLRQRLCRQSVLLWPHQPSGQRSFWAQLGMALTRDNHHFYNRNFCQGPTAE

[3] = molecular target: T3, human TLR7 (Homo sapiens, UniProt Q9NYK1); experiment: HEK293-Blue-hTLR-7 cells assay (SEAP reporter, R848 stimulation); assay type: cell-based; conditions: HEK293-Blue-hTLR7 cells, R848, 20 hrs; read-out: HEK/hTLR7 IC50
T3 construct: host or cells: HEK293 (HEK-Blue hTLR7)
T3 sequence (Q9NYK1 27-1049): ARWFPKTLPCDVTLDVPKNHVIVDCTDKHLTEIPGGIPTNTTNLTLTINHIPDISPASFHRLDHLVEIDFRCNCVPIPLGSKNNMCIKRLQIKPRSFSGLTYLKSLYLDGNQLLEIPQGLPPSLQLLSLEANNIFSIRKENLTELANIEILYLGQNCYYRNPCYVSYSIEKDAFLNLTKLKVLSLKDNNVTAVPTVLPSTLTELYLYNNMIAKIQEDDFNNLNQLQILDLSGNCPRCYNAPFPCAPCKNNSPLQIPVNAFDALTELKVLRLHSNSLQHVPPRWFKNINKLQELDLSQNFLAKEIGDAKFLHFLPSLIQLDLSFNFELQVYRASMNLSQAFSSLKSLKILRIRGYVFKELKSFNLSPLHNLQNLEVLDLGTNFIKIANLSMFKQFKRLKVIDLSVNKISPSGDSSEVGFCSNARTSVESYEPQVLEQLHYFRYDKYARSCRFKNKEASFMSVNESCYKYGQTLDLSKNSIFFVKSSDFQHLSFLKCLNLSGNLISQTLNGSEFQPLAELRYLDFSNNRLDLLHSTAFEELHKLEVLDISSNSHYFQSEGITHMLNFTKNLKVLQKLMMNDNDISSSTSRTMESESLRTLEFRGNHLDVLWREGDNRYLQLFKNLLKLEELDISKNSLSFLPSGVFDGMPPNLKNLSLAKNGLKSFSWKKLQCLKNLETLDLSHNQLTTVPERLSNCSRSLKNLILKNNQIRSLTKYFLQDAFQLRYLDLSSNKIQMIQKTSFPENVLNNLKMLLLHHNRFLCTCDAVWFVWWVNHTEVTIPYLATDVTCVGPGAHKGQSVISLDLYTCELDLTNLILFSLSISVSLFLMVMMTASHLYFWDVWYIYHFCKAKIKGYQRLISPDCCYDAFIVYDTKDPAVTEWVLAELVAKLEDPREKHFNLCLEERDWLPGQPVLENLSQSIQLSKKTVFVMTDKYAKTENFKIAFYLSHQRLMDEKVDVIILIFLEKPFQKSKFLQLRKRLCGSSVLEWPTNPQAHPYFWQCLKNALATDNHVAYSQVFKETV
Description: HEK293-Blue-hTLR-7 Cells Assay:
(§1) A stable HEK293-Blue-hTLR-7 cell line was purchased from InvivoGen (Cat. #: hkb-ht1r7, San Diego, Calif., USA). These cells were originally designed for studying the stimulation of human TLR7 by monitoring the activation of NF-κB. A SEAP (secreted embryonic alkaline phosphatase) reporter gene was placed under the control of the IFN-β minimal promoter fused to five NF-κB and AP-1-binding sites. The SEAP was induced by activating NF-κB and AP-1 via stimulating HEK-Blue hTLR7 cells with TLR7 ligands. Therefore the reporter expression was declined by TLR7 antagonist under the stimulation of a ligand, such as R848 (Resiquimod), for incubation of 20 hrs. The cell culture supernatant SEAP reporter activity was determined using QUANTI-Blue™ kit (Cat. #: rep-qb1, Invivogen, San Diego, Ca, USA) at a wavelength of 640 nm, a detection medium that turns purple or blue in the presence of alkaline phosphatase.
HEK293-Blue-hTLR7 cells were incubated at a density of […] cells/mL in a volume of 170 μL in a 96-well plate in Dulbecco's Modified Eagle's medium (DMEM) containing 4.5 g/L glucose, 50 U/mL penicillin, […], […], 2 mM L-glutamine, 10% (v/v) heat-inactivated fetal bovine serum with addition of 20 μL test compound in a serial dilution in the presence of final DMSO at 1% and 10 μL of 20 uM R848 in above DMEM, perform incubation under 37° C. in a CO2 incubator for 20 hrs. Then 20 μL of the supernatant from each well was incubated with 180 μL Quanti-blue substrate solution at 37° C. for 2 hrs and the absorbance was read at 620˜655 nm using a spectrophotometer. The signaling pathway that TLR7 activation leads to downstream NF-κB activation has been widely accepted, and therefore similar reporter assay was modified for evaluating TLR7 antagonist.

[4] = molecular target: T2, hTLR9; experiment: HEK293-Blue-hTLR-9 cells assay (SEAP reporter, ODN2006 stimulation); assay type: cell-based; parameters: host or cells: HEK293 (HEK-Blue hTLR9); conditions: HEK293-Blue-hTLR9 cells, ODN2006, 20 hrs; read-out: HEK/hTLR9 IC50
Description: HEK293-Blue-hTLR-9 Cells Assay:
as §1, with “HEK293-Blue-hTLR-9” for “HEK293-Blue-hTLR-7”, “hkb-htlr9,” for “hkb-ht1r7,”, “TLR9” for “TLR7”, “hTLR9” for “hTLR7”, “ODN2006 (Cat. #: tlrl-2006-1, Invivogen, San Diego, Calif., USA),” for “R848 (Resiquimod),”, “Calif.,” for “Ca,”
HEK293-Blue-hTLR9 cells were incubated at a density of 250,000˜450,000 cells/mL in a volume of 170 μL in a 96-well plate in Dulbecco's Modified Eagle's medium (DMEM) containing 4.5 g/L glucose, 50 U/mL penicillin, […], 2 mM L-glutamine, 10% (v/v) heat-inactivated fetal bovine serum with addition of 20 μL test compound in a serial dilution in the presence of final DMSO at 1% and 10 μL of 20 uM ODN2006 in above DMEM, perform incubation under 37° C. in a CO2 incubator for 20 hrs. Then 20 μL of the supernatant from each well was incubated with 180 μL Quanti-blue substrate solution at 37° C. for 2 h and the absorbance was read at 620-655 nm using a spectrophotometer. The signaling pathway that TLR9 activation leads to downstream NF-κB activation has been widely accepted, and therefore similar reporter assay was modified for evaluating TLR9 antagonist.

T1 sequence (Q12809 whole entry): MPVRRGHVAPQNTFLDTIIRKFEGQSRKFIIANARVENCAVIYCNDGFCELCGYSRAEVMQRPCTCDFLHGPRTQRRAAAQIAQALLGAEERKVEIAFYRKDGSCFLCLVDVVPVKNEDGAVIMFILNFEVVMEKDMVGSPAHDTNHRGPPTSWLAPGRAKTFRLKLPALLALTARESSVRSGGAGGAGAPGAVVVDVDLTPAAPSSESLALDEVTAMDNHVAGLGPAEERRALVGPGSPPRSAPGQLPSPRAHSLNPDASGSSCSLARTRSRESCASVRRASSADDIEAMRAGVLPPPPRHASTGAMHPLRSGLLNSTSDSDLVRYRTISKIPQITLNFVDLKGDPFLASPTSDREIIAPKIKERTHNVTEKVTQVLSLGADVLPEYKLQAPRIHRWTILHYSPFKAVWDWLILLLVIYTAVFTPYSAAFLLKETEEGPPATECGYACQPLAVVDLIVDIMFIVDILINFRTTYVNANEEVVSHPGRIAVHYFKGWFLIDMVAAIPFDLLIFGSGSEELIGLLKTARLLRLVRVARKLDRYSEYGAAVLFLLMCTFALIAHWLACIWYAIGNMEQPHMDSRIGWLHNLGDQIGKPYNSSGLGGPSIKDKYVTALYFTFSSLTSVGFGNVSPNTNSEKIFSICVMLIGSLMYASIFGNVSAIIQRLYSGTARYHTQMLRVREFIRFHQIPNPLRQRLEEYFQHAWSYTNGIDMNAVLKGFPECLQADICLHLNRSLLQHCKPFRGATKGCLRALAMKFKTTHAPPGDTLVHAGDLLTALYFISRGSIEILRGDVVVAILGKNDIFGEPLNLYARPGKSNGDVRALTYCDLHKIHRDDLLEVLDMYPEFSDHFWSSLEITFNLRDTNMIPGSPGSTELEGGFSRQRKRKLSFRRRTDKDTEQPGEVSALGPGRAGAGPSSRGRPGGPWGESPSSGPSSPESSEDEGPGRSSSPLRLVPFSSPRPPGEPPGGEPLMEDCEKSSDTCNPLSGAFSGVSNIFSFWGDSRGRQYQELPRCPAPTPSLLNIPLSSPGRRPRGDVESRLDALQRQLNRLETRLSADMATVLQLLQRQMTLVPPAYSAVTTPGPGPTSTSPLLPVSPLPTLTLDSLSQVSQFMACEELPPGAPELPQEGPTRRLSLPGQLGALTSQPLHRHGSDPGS

SMILES: C[C@@H]1CN(c2ccc(C#N)c3ncccc23)C[C@H](CN2CCN(c3ccccn3)CC2)O1 [ER-888285, reference compound]
safety window (hERG IC20/TLR7/8/9 IC50) compared to the compounds of this invention [1]: much narrower safety window
hERG IC20/TLR7 IC50 [1]: 8.4
hERG IC20/TLR9 IC50 [1]: 0.5
pIC50 [2]: < 5.70

SMILES: C[C@@H]1CN(c2ccc(C#N)c3ncccc23)C[C@H](CN2CCN(c3ccccc3)CC2)O1 [ER-887258, reference compound]
safety window (hERG IC20/TLR7/8/9 IC50) compared to the compounds of this invention [1]: much narrower safety window
hERG IC20/TLR7 IC50 [1]: 8.1
hERG IC20/TLR9 IC50 [1]: 0.3
pIC50 [2]: < 5.70

SMILES: C[C@@H]1CN(c2ccc(C#N)c3ncccc23)C[C@H](CN2CCN(c3ccc(Cl)cc3)CC2)O1 [Example R2, 5-[(2S,6R)-2-[[4-(4-chlorophenyl)piperazin-1-yl]methyl]-6-methyl-morpholin-4-yl]quinoline-8-carbonitrile, reference compound]
safety window (hERG IC20/TLR7/8/9 IC50) compared to the compounds of this invention [1]: much narrower safety window
hERG IC20/TLR7 IC50 [1]: 1.3
hERG IC20/TLR8 IC50 [1]: 0.8
hERG IC20/TLR9 IC50 [1]: 0.04

SMILES: COc1ccc(N2CCN(C[C@H]3CN(c4ccc(C#N)c5ncccc45)C[C@@H](C)O3)CC2)cc1 [Example R1, 5-[(2S,6R)-2-[[4-(4-methoxyphenyl)piperazin-1-yl]methyl]-6-methyl-morpholin-4-yl]quinoline-8-carbonitrile, reference compound]
safety window (hERG IC20/TLR7/8/9 IC50) compared to the compounds of this invention [1]: much narrower safety window
hERG IC20/TLR7 IC50 [1]: 9.3
hERG IC20/TLR8 IC50 [1]: 6.2
hERG IC20/TLR9 IC50 [1]: 0.1

pIC50 [3]: 7.89
pIC50 [4]: 7.16
SMILES: [2H]c1nc2c(C#N)ccc(N3C[C@H](CN4CCN(c5nc(C)cc(N6C[C@H](OC)[C@@H](N)C6)n5)CC4)O[C@H](C)C3)c2nc1[2H] [Example 105, 8-[(2S,6R)-2-[[4-[4-[(3S,4S)-3-amino-4-methoxy-pyrrolidin-1-yl]-6-methyl-pyrimidin-2-yl]piperazin-1-yl]methyl]-6-methyl-morpholin-4-yl]-2,3-dideuterio-quinoxaline-5-carbonitrile]

SMILES: C[C@@H]1CN(c2ccc(C#N)c3ncccc23)C[C@H](CN2CC[C@@H](NC(=O)c3ccccc3)C2)O1 [ER-894544]
pIC50 [2]: < 5.21

SMILES: Cc1nn(C)cc1S(=O)(=O)NC1CCN(C[C@H]2CN(c3ccc(C#N)c4ncccc34)C[C@@H](C)O2)CC1 [ER-894160]
pIC50 [2]: < 5.00

SMILES: C[C@@H]1CN(c2ccc(C#N)c3ncccc23)C[C@H](CN2CC(NS(=O)(=O)c3ccc(F)cc3)C2)O1 [ER-894155]
pIC50 [2]: < 5.00

Source: patent US20210395239A1 (Hoffmann-La Roche Inc., priority 2018, published 2021)
